Patent US5270339A, “Phenoxybenzene derivative” (Kanagafuchi Kagaku Kogyo Kabushiki Kaisha, priority 1991, dated 1993)

Experiments:
[1] = system: experimental amnesia in mice induced by cycloheximide; assay: Anti-amnesic effect: passive avoidance task (step-through), cycloheximide-induced amnesia; assay type: in vivo, ddY male mice; settings: for Step-through latency: mean of group
Method: (§1) As experimental animals, Wistar male rats and ddY male mice were used for the tests after they were housed for a week under every 12 hours' dark-light cycle at room temperature of 24° to 26° C.
The effect on experimental amnesia in mice induced by cycloheximide was evaluated.
The experiment was carried out using an experimental apparatus of passive avoidance task for mice (made by Ohara-ika-sangyo K. K.) comprising a box divided into the two compartments of dark and light. That is, the dark compartment [a box having a reverse trapezoid cross section (height: 8 cm, base line: 5 cm, oblique line: 9.5 cm) and having the length of 14 cm] was shield from a light with a black plastic case and was floored with stainless grids for giving an electrical shock so that an electricity might be turned on a determined time after interception of a photobeam placed in the dark compartment. The light compartment made of transparent plastic (a box of the same shape as that of the dark compartment having the length of 16 cm, lightened from a location spaced 25 cm above by a 60 W electric lamp) was provided adjacent to the dark compartment. Between the two compartments, there was provided a circular entrance having the diameter of 3 cm with a guillotine door which could be opened and closed. By using the above-mentioned dark-light box, the experiment was carried out according to the following procedure.
A mouse (5 week-old) previously conditioned in the dark-light box was put in the light compartment and the guillotine door was opened. Three seconds after the mouse moved into the dark compartment and interrupted the photobeam, 0.3 mA electrical shock was given to limbs for 3 seconds from the floor grid (aquisition trial). Just after the mouse rushed into the light compartment, the door was shut and the […] in the light compartment was picked out to return to his home cage. After 24 hours, the mouse was placed again in the light compartment and the period from the opening of the guillotine door to the time the mouse completely entered the dark compartment was recorded maximally 300 seconds as a step-through latency (retention trial).
The amnesia was induced by subcutaneous injection of cycloheximide (120 mg/kg) dissolved in saline 10 minutes before the aquisition trial. As a control, the same amount of saline alone was administered. […]
A ratio of number of mice showing the step-through latency of more than 100 seconds in the group was defined as a ratio of memory for convenience's sake.
The step-through latency in Table 2 was the mean value for each treated group.

M1 receptor = molecular target: T1, M1 receptor (Rattus norvegicus, UniProt P08482); assay: Receptor binding activity, inhibition of [3H]pyrenzepine binding to M1; settings: 1 nM [3H]pyrenzepine, rat's brain except cerebellum; for inhibition at 10 µM: 10 μM test compound
T1 construct: rat's brain except for cerebellum was homogenized; from tissue; host or cells: rat brain except cerebellum, homogenate
T1 sequence (P08482 1-460): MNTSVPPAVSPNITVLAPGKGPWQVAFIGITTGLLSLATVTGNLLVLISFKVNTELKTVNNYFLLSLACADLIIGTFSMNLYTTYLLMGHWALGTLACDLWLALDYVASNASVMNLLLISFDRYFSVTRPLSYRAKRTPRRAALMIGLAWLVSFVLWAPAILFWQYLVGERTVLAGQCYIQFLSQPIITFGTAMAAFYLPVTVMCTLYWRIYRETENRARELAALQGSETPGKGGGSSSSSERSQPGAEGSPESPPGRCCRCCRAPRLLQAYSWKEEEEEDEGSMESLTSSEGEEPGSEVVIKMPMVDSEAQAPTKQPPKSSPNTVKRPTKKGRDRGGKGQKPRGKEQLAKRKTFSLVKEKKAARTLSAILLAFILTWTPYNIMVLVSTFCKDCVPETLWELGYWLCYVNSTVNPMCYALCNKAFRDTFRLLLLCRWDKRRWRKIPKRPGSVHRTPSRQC
Method: The binding ability of the test compounds to M1 was determined according to a modification of the method of Watson et al. (Life Sci., 32, 3001 (1983)). […] The mixture was incubated for 1 hour. The inhibition rate (%) of the binding with [3H]pyrenzepine was evaluated. The higher inhibition means the higher affinity of the test compound for M1 receptor.

[2] = Acute toxicity test, oral; assay type: in vivo, ddY male mice; settings: mouse, in vivo, ddY mice, 2 weeks observation
Method: (§2) With respect to the compounds 1 to 86 shown in Table 1 as test compounds, the acute toxicity was examined using ddY mice according to the following method.
(§3) In each group, six male ddY mice weighing 27 to 30 g were employed. The compounds 1 to 86 suspended in an aqueous solution of 0.5% sodium carboxymethylcellulose were administered orally in a volume of 0.1 ml/10 g body weight. […] The LD50 (mg/kg) values were estimated from the ratio of the number of dead mice to the number of mice used.

[3] = system: forced swimming test with rats (duration of immobility); assay: Antidepressant activity: forced swimming test using rats; assay type: in vivo, Wistar male rats; settings: for Effect on duration of immobility (in words): oral administration; for Suppression of duration of immobility: vs saline
Method: as §1
That is, a rat (5 week-old) was placed into a glass cylinder having the inside diameter of 18 cm and the height of 40 cm which contained water (water temperature: 25° C.) up to its height of 15 cm. After 15 minutes, the rat was picked up followed by drying and then returned to his home cage. After 24 hours, the rat was again placed into the water in the same cylinder. The duration of immobility (the time rat kept motionless) was accumulatively measured with a stopwatch for five minutes (a five minutes' test). Each test compound was suspended in saline. The administration was carried out three times, at 24, 5 and 1 hour before the five minutes' test in case of an intraperitoneal administration or with only a single administration at 1 hour before the five minutes' test in case of an oral administration to examine the antidepressant effect.
The duration of immobility in Table 4 is the mean value for […] in each group. Suppression is expressed as a ratio in percentage of a reduction of the duration of immobility in the group administered with the test compound to that in the control group administered with saline alone.

ddY mice = assay: Acute toxicity test, oral; assay type: in vivo, ddY male mice; settings: dose of 200 mg/kg, 2 weeks
Method: as §2, §3

[4] = Mus musculus, 1 mg/kg oral, mice with latency > 100 seconds, read-out: Ratio of memory
[5] = p.o., 30 mg/kg, 1 hour before test
[6] = Mus musculus, 3 mg/kg oral, mice with latency > 100 seconds, read-out: Ratio of memory

SMILES	Step-through latency ([1]; 1 mg/kg oral) [s]	responders at 1 mg/kg [1, 4] [%]	LD50 at 336 h [2] [mg/kg]	inhibition at 10 µM (M1 receptor) [%]	Step-through latency ([1]; 3 mg/kg oral) [s]	responders at 3 mg/kg [1, 6] [%]	further results
CCN1CC(=Cc2cccc(Oc3ccccc3)c2)CC1C (centres unmarked) [Compound 75]	160	50	≥ 500				inhibition at 1 µM (M1 receptor; 1 μM test compound): 65%
C#CCN(C)Cc1ccccc1 [Pargyline, pargyline, reference compound]							Effect on duration of immobility (in words) [3]: prolongation of the duration of immobility; Duration of immobility [3, 5]: 244 s; Suppression of duration of immobility ([3]; p.o., 30 mg/kg): -19%
NC(=O)CN1CCC(=Cc2cccc(Oc3ccccc3)c2)C1=O [Compound 32]	94	50	≥ 500	91			
CN(C)CCCN1c2ccccc2CCc2ccccc21 [Imipramine, imipramine, reference compound]							Duration of immobility ([3]; i.p., 100 mg/kg/time, 24, 5 and 1 hour before test): 79 s; Suppression of duration of immobility ([3]; i.p., 100 mg/kg/time): 61%; Effect on duration of immobility (in words) [3]: no effect; Duration of immobility [3, 5]: 210 s; Suppression of duration of immobility ([3]; p.o., 30 mg/kg): -2%
O=C1NCCC1=Cc1cccc(Oc2ccccc2)c1 [Compound 1]			≥ 500		198	72	Duration of immobility ([3]; i.p., 1 mg/kg/time, 24, 5 and 1 hour before test): 164 s; Suppression of duration of immobility ([3]; i.p., 1 mg/kg/time): 20%; Duration of immobility ([3]; i.p., 3 mg/kg/time, 24, 5 and 1 hour before test): 101 s; Suppression of duration of immobility ([3]; i.p., 3 mg/kg/time): 50%; Duration of immobility ([3]; i.p., 10 mg/kg/time, 24, 5 and 1 hour before test): 71 s; Suppression of duration of immobility ([3]; i.p., 10 mg/kg/time): 65%; Duration of immobility ([3]; i.p., 30 mg/kg/time, 24, 5 and 1 hour before test): 54 s; Suppression of duration of immobility ([3]; i.p., 30 mg/kg/time): 74%; Duration of immobility ([3]; p.o., 0.3 mg/kg, 1 hour before test): 190 s; Suppression of duration of immobility ([3]; p.o., 0.3 mg/kg): 7%; Duration of immobility ([3]; p.o., 1 mg/kg, 1 hour before test): 165 s; Suppression of duration of immobility ([3]; p.o., 1 mg/kg): 20%; Duration of immobility ([3]; p.o., 3 mg/kg, 1 hour before test): 137 s; Suppression of duration of immobility ([3]; p.o., 3 mg/kg): 33%; Duration of immobility ([3]; p.o., 10 mg/kg, 1 hour before test): 76 s; Suppression of duration of immobility ([3]; p.o., 10 mg/kg): 63%; Duration of immobility [3, 5]: 34 s; Suppression of duration of immobility ([3]; p.o., 30 mg/kg): 83%
CCN1CC(=Cc2cccc(Oc3ccccc3)c2)C(C)C1 (centres unmarked) [Compound 76]	109	50	≥ 500				inhibition at 1 µM (M1 receptor; 1 μM test compound): 80%
O=C1C(=Cc2cccc(Oc3ccccc3)c2)CCN1CCF [Compound 26]	196	75	≥ 500	87			
CCN1CCC(=Cc2cccc(Oc3ccccc3)c2)C1=O [Compound 10]			≥ 500	90	127	80	
CON1CCC(=Cc2cccc(Oc3ccccc3)c2)C1=O [Compound 22]			≥ 500	63	100	50	
O=C1NC(N2CCCC2)CC1=Cc1cccc(Oc2ccccc2)c1 (centres unmarked) [Compound 59]			≥ 500	56	157	50	
CC(C)N1CCC(=Cc2cccc(Oc3ccccc3)c2)C1=O [Compound 16]			≥ 500	75	176	75	
CCN1CCC(=Cc2cccc(Oc3ccccc3)c2)C1 [Compound 67]	100	50					Inhibition of the binding with [3H]pyrenzepine (M1) (M1 receptor; 1 μM test compound): 78%
CCN1CCC(=Cc2cccc(Oc3ccccc3)c2)C1 [Compound 66]			≥ 500				Step-through latency ([1]; 0.3 mg/kg oral): 221 s; responders at 0.3 mg/kg ([1]; Mus musculus, 0.3 mg/kg oral, mice with latency > 100 seconds, read-out: Ratio of memory): 75%; inhibition at 1 µM (M1 receptor; 1 μM test compound): 82%
CCCN1CCC(=Cc2cccc(Oc3ccccc3)c2)C1=O [Compound 11]			≥ 500	58	182	63	
CN1CCC(=Cc2cccc(Oc3ccccc3)c2)C1 [Compound 65]	117	50	≥ 500	52			
CC(C)N1CCC(=Cc2cccc(Oc3ccccc3)c2)C1 [Compound 84]	176	75	≥ 500				inhibition at 1 µM (M1 receptor; 1 μM test compound): 75%
C=CCN1CCC(=Cc2cccc(Oc3ccccc3)c2)C1=O [Compound 20]			≥ 500	88			
C(=C1CCNC1)c1cccc(Oc2ccccc2)c1 [Compound 63]			≥ 200				Dead mice (ddY mice): no dead mice
C(=C1CCNC1)c1cccc(Oc2ccccc2)c1 [Compound 64]				90	150	63	Duration of immobility [3, 5]: 40 s; Suppression of duration of immobility ([3]; p.o., 30 mg/kg): 82%
